System: collagen-induced arthritis (CIA) in DBA-1 mice
Experiment: Oral collagen II preparation in mouse collagen-induced arthritis model, Example 10
Format: in vivo
Settings: 20 ug dose, oral gavage 4 times before CIA induction; FIGS. 1 and 2
Experimental: • 1. Ten-twelve week old male DBA-1 mice were weighed and divided into 3 groups (n=8/group) as outlined below. All groups were treated orally (by gavage) 4 times (days −10, −7, −5 & −3) prior to induction of collagen-induced arthritis (CIA) by injection of 100 ug collagen in Complete Freunds Adjuvant at the base of the tail. • 2. Arthritis was induced in all animals on day 0, followed by a boost on day 21, and incidence and severity assessed and scored on days 5, 7, 9, 12, 14, 16, 19 and 21 after the boost. Three treatment groups with 8 animals per group were used as outlined below: • (i). CIA+gavage with oil alone • (ii). CIA+gavage with oil containing bovine collagen II (10 μg/dose) • (iii). CIA+gavage with bovine collagen II ([…])
Clinical scores of arthritis incidence (% of animals in each group affected with arthritis of any severity in any number of joints) and arthritis severity (the severity of disease in each individual mouse) was performed after CIA induction for the duration of the experiment. A standard arthritis scoring system was used as outlined below. Each paw is evaluated for swelling and deformity, scored and a total calculated for each animal.
Score 0: No arthritis Score 1:1-2 toes affected only Score 2: 3 or >toes and/or swelling of the paw (metacarpus/metatarsus) Score 3: swelling of the carpus/tarsus Score 4: deformity with ankylosis of the carpus/tarsus • 3. […]

Substance: collagen alone: bovine collagen II given by gavage without oil formulation
- number of animals suffering from arthritis (incidence): reduction in the number of animals suffering from arthritis
